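Five concentrations, 48 hours, 96-well plates. GI50: concentration for 50% inhibition of growth.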 Active and inactive are the calls of the source. No stated cut-off is given here; in the data, active = GI50 up to about 1.1 µM and inactive = higher.
How the values were obtained:
Assay in all cases: DTP human tumour cell line panel, 48 h
786-0 = system: 786-0
A498 = system: A498
A549 = system: A549
ACHN = system: ACHN
CAKI-1 = system: CAKI-1
CCRF-CEM = system: CCRF-CEM
COLO 205 = system: COLO 205
DLD-1 = system: DLD-1
DMS-273 = system: DMS-273
EKVX = system: EKVX
HCC 2998 = system: HCC 2998
HCT-116 = system: HCT-116
HCT-15 = system: HCT-15
HL-60 = system: HL-60
HOP-18 = system: HOP-18
HOP-62 = system: HOP-62
HOP-92 = system: HOP-92
HT-29 = system: HT-29
IGROV-1 = system: IGROV-1
K562 = system: K562
KM-20L2 = system: KM-20L2
KM12 = system: KM12
LOX IMVI = system: LOX IMVI
LXFL 529 = system: LXFL 529
M14 = system: M14
M19-MEL = system: M19-MEL
MOLT-4 = system: MOLT-4
Malme-3M = system: Malme-3M
NCI-H226 = system: NCI-H226
NCI-H23 = system: NCI-H23
NCI-H460 = system: NCI-H460
NCI-H522 = system: NCI-H522
OVCAR-3 = system: OVCAR-3
OVCAR-4 = system: OVCAR-4
OVCAR-5 = system: OVCAR-5
OVCAR-8 = system: OVCAR-8
RPMI-8226 = system: RPMI-8226
RXF 393 = system: RXF 393
SF-268 = system: SF-268
SF-295 = system: SF-295
SF-539 = system: SF-539
SK-MEL-28 = system: SK-MEL-28
SK-MEL-2 = system: SK-MEL-2
SK-MEL-5 = system: SK-MEL-5
SK-OV-3 = system: SK-OV-3
SN12C = system: SN12C
SNB-19 = system: SNB-19
SNB-75 = system: SNB-75
SNB-78 = system: SNB-78
SR = system: SR
SW-620 = system: SW-620
TK-10 = system: TK-10
U-251 = system: U-251
UACC-257 = system: UACC-257
UACC-62 = system: UACC-62
UO-31 = system: UO-31
BT-549 = system: BT-549
DMS-114 = system: DMS-114
DU-145 = system: DU-145
Hs-578T = system: Hs-578T
MCF7 = system: MCF7
MDA-MB-231 = system: MDA-MB-231
MDA-MB-435 = system: MDA-MB-435
MDA-N = system: MDA-N
NCI/ADR-RES = system: NCI/ADR-RES
PC-3 = system: PC-3
T47D = system: T47D

SMILES: CCC(C)(O)c1cn(-c2ccc(Cl)cc2)nn1 (stereo not given)
- GI50 (786-0): > 100 µM (inactive)
- GI50 (A498): > 100 µM (inactive)
- GI50 (A549): > 100 µM (inactive)
- GI50 (ACHN): > 100 µM (inactive)
- GI50 (CAKI-1): > 100 µM (inactive)
- GI50 (CCRF-CEM): > 100 µM (inactive)
- GI50 (COLO 205): > 100 µM (inactive)
- GI50 (DLD-1): > 100 µM (inactive)
- GI50 (DMS-273): > 100 µM (inactive)
- GI50 (EKVX): > 100 µM (inactive)
- GI50 (HCC 2998): > 100 µM (inactive)
- GI50 (HCT-116): > 100 µM (inactive)
- GI50 (HCT-15): > 100 µM
- GI50 (HL-60): > 100 µM (inactive)
- GI50 (HOP-18): > 100 µM (inactive)
- GI50 (HOP-62): > 100 µM (inactive)
- GI50 (HOP-92): > 100 µM (inactive)
- GI50 (HT-29): > 100 µM (inactive)
- GI50 (IGROV-1): > 100 µM (inactive)
- GI50 (K562): > 100 µM (inactive)
- GI50 (KM-20L2): > 100 µM (inactive)
- GI50 (KM12): > 100 µM (inactive)
- GI50 (LOX IMVI): > 100 µM (inactive)
- GI50 (LXFL 529): > 100 µM (inactive)
- GI50 (M14): > 100 µM (inactive)
- GI50 (M19-MEL): > 100 µM (inactive)
- GI50 (MOLT-4): > 100 µM (inactive)
- GI50 (Malme-3M): > 100 µM (inactive)
- GI50 (NCI-H226): > 100 µM (inactive)
- GI50 (NCI-H23): > 100 µM (inactive)
- GI50 (NCI-H460): > 100 µM (inactive)
- GI50 (NCI-H522): > 100 µM (inactive)
- GI50 (OVCAR-3): > 100 µM (inactive)
- GI50 (OVCAR-4): > 100 µM (inactive)
- GI50 (OVCAR-5): > 100 µM (inactive)
- GI50 (OVCAR-8): > 100 µM (inactive)
- GI50 (RPMI-8226): > 100 µM (inactive)
- GI50 (RXF 393): > 100 µM (inactive)
- GI50 (SF-268): > 100 µM (inactive)
- GI50 (SF-295): > 100 µM (inactive)
- GI50 (SF-539): > 100 µM (inactive)
- GI50 (SK-MEL-28): > 100 µM (inactive)
- GI50 (SK-MEL-2): > 100 µM (inactive)
- GI50 (SK-MEL-5): > 100 µM (inactive)
- GI50 (SK-OV-3): > 100 µM (inactive)
- GI50 (SN12C): > 100 µM (inactive)
- GI50 (SNB-19): > 100 µM (inactive)
- GI50 (SNB-75): > 100 µM (inactive)
- GI50 (SNB-78): > 100 µM (inactive)
- GI50 (SR): > 100 µM (inactive)
- GI50 (SW-620): > 100 µM (inactive)
- GI50 (TK-10): > 100 µM (inactive)
- GI50 (U-251): > 100 µM (inactive)
- GI50 (UACC-257): > 100 µM (inactive)
- GI50 (UACC-62): > 100 µM (inactive)
- GI50 (UO-31): > 100 µM (inactive)

SMILES: Cc1cc(O)nc(NN2C(Cl)C(=O)C2c2ccc(Cl)cc2)n1 (stereo not given)
- GI50 (786-0): 15.6 µM (inactive)
- GI50 (A498): 18.2 µM (inactive)
- GI50 (A549): 26.3 µM (inactive)
- GI50 (ACHN): 23 µM (inactive)
- GI50 (BT-549): 20.5 µM (inactive)
- GI50 (CAKI-1): 15.7 µM (inactive)
- GI50 (CCRF-CEM): 1.87 µM (inactive)
- GI50 (COLO 205): 17.2 µM (inactive)
- GI50 (DMS-114): 13.5 µM (inactive)
- GI50 (DMS-273): 11.9 µM (inactive)
- GI50 (DU-145): 23.3 µM (inactive)
- GI50 (EKVX): 16.6 µM (inactive)
- GI50 (HCC 2998): 17 µM (inactive)
- GI50 (HCT-116): 11.3 µM (inactive)
- GI50 (HCT-15): 15.1 µM
- GI50 (HL-60): 3.18 µM (inactive)
- GI50 (HOP-18): 8.55 µM (inactive)
- GI50 (HOP-62): 19.6 µM (inactive)
- GI50 (HOP-92): 12.9 µM (inactive)
- GI50 (HT-29): 18 µM (inactive)
- GI50 (Hs-578T): 30 µM (inactive)
- GI50 (IGROV-1): 3.61 µM (inactive)
- GI50 (K562): 2.88 µM (inactive)
- GI50 (KM-20L2): 20.6 µM (inactive)
- GI50 (KM12): 10.6 µM (inactive)
- GI50 (LOX IMVI): 4.15 µM (inactive)
- GI50 (LXFL 529): 5.86 µM (inactive)
- GI50 (M14): 13.4 µM (inactive)
- GI50 (M19-MEL): 17.7 µM (inactive)
- GI50 (MCF7): 12.8 µM (inactive)
- GI50 (MDA-MB-231): 26.4 µM (inactive)
- GI50 (MDA-MB-435): 23.4 µM (inactive)
- GI50 (MDA-N): 8.53 µM (inactive)
- GI50 (MOLT-4): 6.65 µM (inactive)
- GI50 (Malme-3M): 16.8 µM (inactive)
- GI50 (NCI-H226): 11.9 µM (inactive)
- GI50 (NCI-H23): 15.8 µM (inactive)
- GI50 (NCI-H460): 16.4 µM (inactive)
- GI50 (NCI/ADR-RES): 20.7 µM (inactive)
- GI50 (OVCAR-3): 13.6 µM (inactive)
- GI50 (OVCAR-4): 22.9 µM (inactive)
- GI50 (OVCAR-5): 40 µM (inactive)
- GI50 (OVCAR-8): 19.1 µM (inactive)
- GI50 (PC-3): 32.7 µM (inactive)
- GI50 (RPMI-8226): 8.55 µM (inactive)
- GI50 (RXF 393): 17.4 µM (inactive)
- GI50 (SF-268): 19.8 µM (inactive)
- GI50 (SF-295): 8.61 µM (inactive)
- GI50 (SF-539): 16.3 µM (inactive)
- GI50 (SK-MEL-28): 18.2 µM (inactive)
- GI50 (SK-MEL-2): 19.3 µM (inactive)
- GI50 (SK-MEL-5): 12.8 µM (inactive)
- GI50 (SK-OV-3): 41.8 µM (inactive)
- GI50 (SN12C): 16.7 µM (inactive)
- GI50 (SNB-19): 19.4 µM (inactive)
- GI50 (SNB-75): 17.4 µM (inactive)
- GI50 (SNB-78): 17.9 µM (inactive)
- GI50 (SR): 1.27 µM (inactive)
- GI50 (SW-620): 22.5 µM (inactive)
- GI50 (T47D): 16.6 µM (inactive)
- GI50 (TK-10): 19.8 µM (inactive)
- GI50 (U-251): 20.5 µM (inactive)
- GI50 (UACC-257): 21.6 µM (inactive)
- GI50 (UACC-62): 16.7 µM (inactive)
- GI50 (UO-31): 25.6 µM (inactive)

SMILES: Nc1nc(O)c2ncn(C3OC(CO)C(O)C3O)c2n1 (stereo not given)
- GI50 (A498): 3.81 µM (inactive)
- GI50 (CAKI-1): 77.1 µM (inactive)
- GI50 (CCRF-CEM): 23.9 µM (inactive)
- GI50 (COLO 205): 57 µM (inactive)
- GI50 (DLD-1): 65.3 µM (inactive)
- GI50 (DMS-114): 6.15 µM (inactive)
- GI50 (DMS-273): 58.7 µM (inactive)
- GI50 (EKVX): 10.2 µM (inactive)
- GI50 (HCC 2998): 17.1 µM (inactive)
- GI50 (HCT-116): 68.1 µM (inactive)
- GI50 (HL-60): 37.6 µM (inactive)
- GI50 (HOP-18): 49.8 µM (inactive)
- GI50 (HOP-62): 8.63 µM (inactive)
- GI50 (HT-29): 10.9 µM (inactive)
- GI50 (IGROV-1): > 77.4 µM (inactive)
- GI50 (K562): 81.7 µM (inactive)
- GI50 (KM-20L2): 16.8 µM (inactive)
- GI50 (KM12): 80 µM (inactive)
- GI50 (LOX IMVI): 52.5 µM (inactive)
- GI50 (M19-MEL): 16 µM (inactive)
- GI50 (MCF7): 33.8 µM (inactive)
- GI50 (MOLT-4): 48.2 µM (inactive)
- GI50 (NCI-H226): 72.6 µM (inactive)
- GI50 (NCI-H23): 17.4 µM (inactive)
- GI50 (NCI-H522): 41.9 µM (inactive)
- GI50 (NCI/ADR-RES): 18.4 µM (inactive)
- GI50 (OVCAR-3): 23.2 µM (inactive)
- GI50 (OVCAR-4): 15.9 µM (inactive)
- GI50 (OVCAR-5): 111 µM (inactive)
- GI50 (RXF 393): 6.84 µM (inactive)
- GI50 (SF-268): 74.8 µM (inactive)
- GI50 (SF-295): 71.6 µM (inactive)
- GI50 (SF-539): 13.8 µM (inactive)
- GI50 (SK-MEL-28): 90.8 µM (inactive)
- GI50 (SK-MEL-2): 71.1 µM (inactive)
- GI50 (SK-MEL-5): 53.6 µM (inactive)
- GI50 (SK-OV-3): 95.7 µM (inactive)
- GI50 (SN12C): 79.8 µM (inactive)
- GI50 (SNB-75): 15.4 µM (inactive)
- GI50 (SNB-78): 95.3 µM (inactive)
- GI50 (SW-620): 76.7 µM (inactive)
- GI50 (U-251): 16.1 µM (inactive)
- GI50 (UACC-62): 13.3 µM (inactive)
- GI50 (UO-31): 63.7 µM (inactive)
